According to patent US9545387B2, “Composition and kit comprising piperazine derivatives and metformin, and use thereof in the treatment of diabetes” (METABOLYS, priority 2012, dated 2017):

Columns and labels:
[1] = oral glucose tolerance test (OGTT) in normal Swiss mice fasting for 17 hours, additive effect with metformin; assay type: in vivo; details: metformin 300 mg/kg per os; for Glycaemia, Time −60 mn / Glycaemia, Time 0 mn / Glycaemia, Time 30 mn / Glycaemia, Time 60 mn / Glycaemia, Time 90 mn / Glycaemia, Time 120 mn: OGTT; for Glycaemia, Time −60 mn: given 1 h before glucose load, time −60 min; for Glycaemia, Time 0 mn: time 0 min; for Glycaemia, Time 30 mn: time 30 min; for Glycaemia, Time 60 mn: time 60 min; for Glycaemia, Time 90 mn: time 90 min; for Glycaemia, Time 120 mn: time 120 min
[2] = as above; assay type: in vivo; details: compound 1 50 mg/kg per os, metformin 300 mg/kg per os
Description: The anti-diabetic action of the compounds in Examples 1 and 2 were determined via oral route in normal Swiss mice fasting for 17 hours. […] The animals were housed for a minimum time of one week after delivery (ordered from Charles River France) up until the day of experimentation in an animal facility at a temperature regulated at 21-22° C. and subjected to a light cycle (from 9 h to 17 h) and dark cycle (from 19 h to 7 h). They were fed a maintenance diet: water and food were provided ? ad libitum ? . The animals were treated via oral route 1 hour before oral administration of a glucose load (oral glucose tolerance test—OGTT). Glycaemia was measured at various times before and after this glucose load. This glycaemia was measured using a glucometer (Lifescan OneTouch Ultra, Lifescan, Johnson and Johnson Company) and OneTouch Ultra glycaemia test strips. In the Tables below n represents the number of mice included in the study. • 1. […] The 2 compounds were administered successively one hour before the glucose load. All the groups were composed of 5 mice (metformin alone, compound 1 alone, metformin+compound 1, control group with the carrier alone). Blood samples were taken at 0, 30, 60, 90 and 120 minutes after the glucose load.

[3] = glycaemia and circulating insulin before and after a glucose load in STZ-N0a rats; assay type: in vivo; details: for Glycaemia, Time −60 mn / Insulin, Time −60 mn: time −60 min; for Glycaemia, Time 0 mn / Insulin, Time 0 mn: time 0 min; for Glycaemia, Time 30 mn / Insulin, Time 30 mn: time 30 min; for Glycaemia, Time 60 mn / Insulin, Time 60 mn: time 60 min; for Glycaemia, Time 90 mn / Insulin, Time 90 mn: time 90 min; for Glycaemia, Time 120 mn / Insulin, Time 120 mn: time 120 min
Description: An increase in insulin secretion was noted solely when compound 2 caused an increases in the peripheral consumption of glucose by skeletal muscle (Tables 9 to 12 which give a mean of the results obtained). […] It is shown in Tables 11 and 12 that if there is no increase in muscle consumption of glucose, there is no increase in the level of circulating insulin.

[4] = system: liver cells of rats fasting for 48 h; experiment: metabolism of lactate and glutamine in liver cells of rats fasting for 48 h; assay type: cell-based, rat
Description: […] Enzymatic assay of the consumption of lactate and glutamine was performed, the production of their metabolites was also analysed. Finally the ATP cell concentration was determined.
Complete oxidation of a substrate was measured by the lowest CO2 value produced from one of its carbons. As a result, this carbon is found in greater quantity in non-volatile products (other than CO2) formed during the metabolism of this substrate.
Complete oxidation of lactate can therefore be determined by measuring the production of 13CO2 from 2-13C-lactate.
Complete oxidation of glutamine can be examined by measuring the production of 13CO2 from 3-13C-glutamine (Biochem. J., 2004, 378, 485-495).

[5] = Table 3, compound 3 50 mg/kg per os
[6] = Table 4, compound 4 50 mg/kg per os
[7] = Table 1, compound 1 50 mg/kg per os
[8] = Table 11, compound 2, title 25 mg/kg (row prints 200 mg/kg)
[9] = Table 12, compound 2, title 25 mg/kg (row prints 200 mg/kg)
[10] = 5 mM 2-13C-lactate + 0.5 mM compound 2, n = 4
[11] = 5 mM 3-13C-glutamine + 0.5 mM compound 2, n = 4
[12] = 5 mM glutamine + 2 mM compound 2, n = 6
[13] = 5 mM lactate + 0.5 mM compound 2, n = 3
[14] = 5 mM lactate + 2 mM compound 2, n = 6
[15] = Table 2, compound 2 50 mg/kg per os

## COc1cccc(N2CCN(CCOc3ccc(C(=O)CCC(=O)O)cc3)CC2)c1 [Compound 3]
[1]; [5]
  Glycaemia, Time −60 mn: 4.4 ± 0.3 mM/liter
  Glycaemia, Time 0 mn: 5.5 ± 0.3 mM/liter
  Glycaemia, Time 30 mn: 11.3 ± 0.6 mM/liter
  Glycaemia, Time 60 mn: 9.7 ± 0.4 mM/liter
  Glycaemia, Time 90 mn: 7.4 ± 0.3 mM/liter
  Glycaemia, Time 120 mn: 7.2 ± 0.5 mM/liter
[1]; study 3, compound 3 50 mg/kg per os
  drop of glycaemia area under curve after glucose load: 54.9%

## COc1ccccc1N1CCN(CCOc2ccc(CCCCC(=O)O)cc2)CC1 [Compound 4]
[1]; [6]
  Glycaemia, Time −60 mn: 3.4 ± 0.2 mM/liter
  Glycaemia, Time 0 mn: 4.0 ± 0.3 mM/liter
  Glycaemia, Time 30 mn: 18.6 ± 3.2 mM/liter
  Glycaemia, Time 60 mn: 13.3 ± 1.5 mM/liter
  Glycaemia, Time 90 mn: 8.8 ± 1.0 mM/liter
  Glycaemia, Time 120 mn: 6.8 ± 1.0 mM/liter
[1]; study 4, compound 4 50 mg/kg per os
  drop of glycaemia area under curve after glucose load: 18.7%

## O=C(O)CCC(=O)c1ccc(OCCN2CCN(c3ccccc3F)CC2)cc1 [Compound 1]
[1]; [7]
  Glycaemia, Time −60 mn: 5.0 ± 0.2 mM/liter
  Glycaemia, Time 30 mn: 15.2 ± 1.9 mM/liter
  Glycaemia, Time 60 mn: 10.6 ± 0.2 mM/liter
  Glycaemia, Time 120 mn: 5.3 ± 0.2 mM/liter
[2]; Table 1, OGTT, time 0 min
  Glycaemia, Time 0 mn: 4.5 ± 0.3 mM/liter
[2]; Table 1, OGTT, time 90 min
  Glycaemia, Time 90 mn: 6.5 ± 0.5 mM/liter
[2]; study 1
  drop of glycaemia area under curve after glucose load: 42.5%

## O=C(O)CCC(=O)c1ccc(OCCN2CCN(c3ccccn3)CC2)cc1 [Compound 2]
[3]; Table 9, compound 2 200 mg/kg
  Glycaemia AUC: 356
  Glycaemia, Time 0 mn: 8.75 mmol/L
  Glycaemia, Time 30 mn: 12.97 mmol/L
  Glycaemia, Time 60 mn: 13.15 mmol/L
  Glycaemia, Time 90 mn: 11.37 mmol/L
  Glycaemia, Time 120 mn: 10.13 mmol/L
[3]; Table 9, compound 2 200 mg/kg, glucose load at 0 min
  Glycaemia, Time −60 mn: 4.75 mmol/L
[3]; Table 10, compound 2 200 mg/kg, circulating insulin
  Insulin, Time −60 mn: 0.47 ng/mL
[3]; Table 10, compound 2 200 mg/kg
  Insulin, Time 0 mn: 0.41 ng/mL
  Insulin, Time 30 mn: 0.70 ng/mL
  Insulin, Time 60 mn: 0.59 ng/mL
  Insulin, Time 90 mn: 0.54 ng/mL
  Insulin, Time 120 mn: 0.53 ng/mL
[3]; [8]
  Glycaemia AUC: 1048
  Glycaemia, Time 0 mn: 5.23 mmol/L
  Glycaemia, Time 30 mn: 11.15 mmol/L
  Glycaemia, Time 60 mn: 16.21 mmol/L
  Glycaemia, Time 90 mn: 14.36 mmol/L
  Glycaemia, Time 120 mn: 15.33 mmol/L
  Glycaemia, Time −60 mn: 5.12 mmol/L
[3]; [9]
  Insulin, Time 0 mn: 1.41 ng/mL
  Insulin, Time 30 mn: 1.76 ng/mL
  Insulin, Time 60 mn: 1.48 ng/mL
  Insulin, Time 90 mn: 1.61 ng/mL
  Insulin, Time 120 mn: 1.61 ng/mL
  Insulin, Time −60 mn: 1.11 ng/mL
[4]; 5 mM 2-13C-lactate + 0.5 mM compound 2
  reduction of the consumption of lactate: 10%
[4]; [10]
  13CO2 production: 5.99 ± 0.09 μmoles/flask
  ATP concentration: 188.4 ± 25.2 nanomoles per 6 precisely cut liver section
  Glucose production: 4.69 ± 0.14 μmoles/flask
[4]; [11]
  ATP concentration: 362.9 ± 53.3 (NS) nanomoles per 6 precisely cut liver sections
  Glucose production: 6.05 ± 0.30 μmoles/flask
  Production of 13CO2: 1.86 ± 0.28 μmoles/flask
[4]; 5 mM glutamine + 2 mM compound 2
  ATP concentration: 34.2 ± 7.6 nanomoles per 2 precisely cut liver sections
[4]; 5 mM glutamine + 2 mM compound 2, consumption of glutamine − (2 * glucose + pyruvate + lactate + alanine + glutamate products)
  Complete oxidation: 0.59 ± 0.35* μmoles/flask
[4]; [12]
  Consumption of substrate (—): −2.77 ± 0.15 μmoles/flask
  Glucose production: 0.78 ± 0.09 μmoles/flask
[4]; [13]
  Sum of labelling of non-volatile products from lactate metabolism, 1-13C-lactate: 1.36 ± 0.09*+ μmoles of carbon 13/flask
  Sum of labelling of non-volatile products from lactate metabolism, 2-13C-lactate: 4.94 ± 0.15 μmoles of carbon 13/flask
  Sum of labelling of non-volatile products from lactate metabolism, 3-13C-lactate: 4.06 ± 0.15*+ μmoles of carbon 13/flask
[4]; 5 mM lactate + 2 mM compound 2
  ATP concentration: 31.8 ± 8.0 nanomoles per 2 precisely cut liver sections
[4]; 5 mM lactate + 2 mM compound 2, consumption of lactate − (2 * glucose + pyruvate + alanine products)
  Complete oxidation: 0.64 ± 0.30* μmoles/flask
[4]; 5 mM lactate + 2 mM compound 2, lactate consumption minus twice glucose production
  NADH mitochondrial transport: 1.06 ± 0.33 μmoles/flask
[4]; [14]
  Consumption of substrate (—): −2.59 ± 0.34 μmoles/flask
  Glucose production: 0.76 ± 0.13 μmoles/flask
[1]; [15]
  Glycaemia, Time −60 mn: 4.6 ± 0.4 mM/liter
  Glycaemia, Time 0 mn: 4.9 ± 0.2 mM/liter
  Glycaemia, Time 30 mn: 14.5 ± 1.4 mM/liter
  Glycaemia, Time 60 mn: 10.4 ± 0.5 mM/liter
  Glycaemia, Time 90 mn: 8.3 ± 1.1 mM/liter
  Glycaemia, Time 120 mn: 6.8 ± 0.6 mM/liter
[1]; study 2, compound 2 50 mg/kg per os
  drop of glycaemia area under curve after glucose load: 40.5%
